From patent US8586620B2, “Substituted indole compounds having NOS inhibitory activity” (NeurAxon, Inc., priority 2005, dated 2013)
Counter-ions that a name gives are not always drawn. Like-named read-outs stand apart in the source and are kept apart here. One block for each compound: values may come before it.

What was measured:
migraine attack = conditions: open pilot study; cited from earlier work
[1] = target: human inducible NOS (iNOS) (Homo sapiens (Human), UniProt P35228); experiment: Human iNOS enzyme assay, radiometric; type: biochemical
Description: Standard deviations were 10% or less.

5-HT1B = 5-HT1B (Rattus norvegicus (Rat), UniProt P28564); experiment: 5-HT1B binding assay (agonist radioligand), rat cerebral cortex
Chain of 5-HT1B (P28564 whole entry): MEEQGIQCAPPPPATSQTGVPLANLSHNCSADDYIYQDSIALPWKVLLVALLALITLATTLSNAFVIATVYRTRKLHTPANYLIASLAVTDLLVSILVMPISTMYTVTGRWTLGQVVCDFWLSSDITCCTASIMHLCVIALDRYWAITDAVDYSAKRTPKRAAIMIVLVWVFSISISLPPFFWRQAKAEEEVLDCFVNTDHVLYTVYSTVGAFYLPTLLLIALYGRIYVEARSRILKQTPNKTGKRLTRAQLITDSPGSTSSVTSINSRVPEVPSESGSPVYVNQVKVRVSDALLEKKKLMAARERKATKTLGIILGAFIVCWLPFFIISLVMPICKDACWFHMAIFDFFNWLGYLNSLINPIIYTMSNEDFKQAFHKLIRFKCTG
Procedure: 5-HT1D binding assays (agonist radioligand)were performed using bovine caudate membranes according to the methods of Heuring and Peroutka (J. Neurosci 1987, 7: 894-903). 5-HT1B (rat cerebral cortex) binding assays (agonist radioligand) were performed according to the method of Hoyer et. al. (Eur. J. Pharmacol. 1995, 118: 1-12). For the purpose of result analysis, the specific ligand binding to the receptors is defined as the difference between the total binding and the nonspecific binding as determined in the presence of an excess of unlabelled ligand. The results are expressed as a percent of control specific binding obtained in the presence of the test compounds. IC50 values (concentration causing a half-maximal inhibition of control specific binding) and Hill coefficients (nH) were determined by non-linear regression analysis of the competition curves using Hill equation curve fitting and the inhibition constants (Ki) were calculated from the Cheng Prusoff equation (Ki=IC50/(1+(L/KD)), where L=concentration of radioligand in the assay, and KD=affinity of the radioligand for the receptor).

[2] = target: human endothelial constitutive NOS (eNOS) (Homo sapiens (Human), UniProt P29474); experiment: Human eNOS enzyme assay, radiometric;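 note: recombinant human eNOS expressed in baculovirus-infected Sf9 cells, activity read as [3H]L-arginine turned into [3H]L-citrulline, the product isolated on ion-exchange resin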
[3] = target: human neuronal constitutive NOS (nNOS) (Homo sapiens (Human), UniProt P29475); experiment: Human nNOS enzyme assay, radiometric [3H]L-arginine to [3H]L-citrulline;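 note: recombinant human nNOS expressed in baculovirus-infected Sf9 cells, enzyme activity measured radiometrically as turnover of [3H]L-arginine into [3H]L-citrulline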
hindpaw allodynia = experiment: Experimental migraine model, inflammatory soup on dura, hindpaw allodynia
cardiogenic shock = conditions: randomized trial of 30 patients; reduced from 67%; cited from earlier work
[4] = system: L5/L6 spinal nerve ligation; experiment: Chung spinal nerve ligation (SNL) model of neuropathic pain; type: in vivo; conditions: rats; for tactile hyperthesia: L5/L6 spinal nerve ligation, FIGS. 20 and 22; for thermal hyperalgesia: one standard dose (10 mg/kg) injected IP, FIG. 19, 21
Procedure: (a) Chung Model of Injury-induced Neuropathic-like Pain: The experimental designs for the Chung Spinal Nerve Ligation SNL Model assay for neuropathic pain are depicted in FIG. 18. Nerve ligation injury was performed according to the method described by Kim and Chung (Kim and Chung, Pain 50:355-363, 1992). This technique produces signs of neuropathic dysesthesias, including tactile allodynia, thermal hyperalgesia, and guarding of the affected paw. Rats were anesthetized with halothane and the vertebrae over the L4 to S2 region were exposed. The L5 and L6 spinal nerves were exposed, carefully isolated, and tightly ligated with 4-0 silk suture distal to the DRG. After ensuring homeostatic stability, the wounds were sutured, and the animals allowed to recover in individual cages. Sham-operated rats were prepared in an identical fashion except that the L5/L6 spinal nerves were not ligated. […] After a period of recovery following the surgical intervention, rats show enhanced sensitivity to painful and normally non-painful stimuli.

Rat nNOS = Rat nNOS (Rattus norvegicus (Rat), UniProt P29476); experiment: Rat nNOS hemoglobin capture assay; type: biochemical; conditions: Table 2a
Description: (§1) The NOS isoforms used in this example were recombinant enzymes expressed in E. coli. Rat nNOS was expressed and purified as described previously (Roman et al., Proc. Natl. Acad. Sci. USA 92:8428-8432, 1995). The bovine eNOS isoform was isolated as reported (Martasek et al., Biochem. Biophys. Res. Commun. 219:259-365, 1996) and murine macrophage iNOS was expressed and isolated according to the procedure of Hevel et al. (J. Biol. Chem. 266:22789-22791, 1991). IC50 values and percent inhibition of NOS by the compounds of the invention were determined under initial velocity measurement conditions with the hemoglobin capture assay as previously described (Hevel and Marletta, Methods Enzymol. 133:250-258, 1994). In this assay, nitric oxide reacts with oxyhemoglobin to yield methemoglobin, which was detected at 401 nm (e=19,700 M^−1 cm^−1) on a Perkin-Elmer Lamda 10 UV/vis spectrophotometer. The assays were performed using varying test compound concentrations. Assay mixtures for nNOS or eNOS contained […], 1.6 mM CaCl2, 11.6 mg/mL calmodulin, […], 6.5 mM BH4 and […] in 100 mM Hepes (pH 7.5). Assay mixtures for iNOS contained 10 mM of L-arginine, […], 6.5 mM BH4 and […] in 100 mM Hepes (pH 7.5). All assays were conducted in a final volume of 600 μL and were initiated with enzyme.

murine macrophage iNOS = murine macrophage iNOS (Mus musculus (Mouse), UniProt P29477); experiment: Murine iNOS hemoglobin capture assay; type: biochemical
Description: as §1

bovine eNOS = bovine eNOS (Bos taurus (Bovine), UniProt P29473); experiment: Bovine eNOS hemoglobin capture assay; type: biochemical
Description: as §1

[5] = system: rat cortical neuronal cultures; experiment: Neuroprotection of rat cortical cells against NMDA challenge; type: cell-based; conditions: 60-minute pre-incubation; 30 minutes 25 μM NMDA; propidium iodide after 24 hrs; FIG. 1
Procedure: According to a previously reported procedure (Tremblay et al., J Neurosci. 20(19):7183-92, 2000), test compounds were added for a 60-minute pre-incubation period to rat cortical neuronal cultures, which were then exposed for 30 minutes to 25 μM NMDA in buffer. After 24 hrs cultures were treated with propidium iodide and the % cell death determined and compared to control cells.

migraine = conditions: single i.v. administration; human migraine; cited from earlier work
persistent shock = conditions: up to 30 days; 11 patients with persistent shock; cited from earlier work
[6] = Table I, human NOS, dihydrochloride or monohydrochloride salts, read-out: iNOSh
[7] = read-out: eNOSh, Table I, human NOS, dihydrochloride or monohydrochloride salts
[8] = read-out: nNOSh, Table I, human NOS, dihydrochloride or monohydrochloride salts
[9] = 6 mg/kg i.v. 10 minutes prior to IS
[10] = Table 2a, hemoglobin capture assay, read-out: Murine iNOS
[11] = Table 2a, hemoglobin capture assay, read-out: Bovine eNOS

SMILES: C/C1=C2/[N-][C@H]([C@H](CC(N)=O)[C@@]2(C)CCC(=O)NC[C@@H](C)OP(=O)([O-])O[C@H]2[C@@H](O)[C@@H](n3cnc4cc(C)c(C)cc43)O[C@@H]2CO)[C@]2(C)N=C(/C(C)=C3N=C(/C=C4N=C1[C@@H](CCC(N)=O)C\4(C)C)[C@@H](CCC(N)=O)[C@]\3(C)CC(N)=O)[C@@H](CCC(N)=O)[C@]2(C)CC(N)=O.[Co+3].[OH-] [hydroxycobalamin]
patients with reduction in the frequency of migraine attack of 50% (migraine attack): 53%

SMILES: CN1CC=C(c2c[nH]c3ccc(NC(=N)c4cccs4)cc23)CC1 [Compound 42, N-(3-(1-methyl-1,2,3,6-tetrahydropyridin-4-yl)-1H-indol-5-yl)thiophene-2-carboximidamide]
IC50 [1, 6]: 20 µM
IC50 (5-HT1B): 0.16 µM
IC50 [2, 7]: 51.1 µM
e/n [3]: 53
IC50 [3, 8]: 0.92 µM
development of hindpaw allodynia (hindpaw allodynia; [9]): prevents the development of hindpaw allodynia

SMILES: CN1CCC[C@H]1Cc1c[nH]c2ccc(NC(=N)c3cccs3)cc12 [Compound 105, (S)-N-(3-((1-methylpyrrolidin-2-yl)methyl)-1H-indol-5-yl)thiophene-2-carboximidamide]
IC50 (5-HT1B): 0.29 µM
IC50 [2, 7]: 23 µM
e/n ([3]; Table I, ratio eNOSh/nNOSh): 29
IC50 [3, 8]: 0.82 µM

melting point: 212 °C
SMILES: CN1CCC[C@H]1CCc1c[nH]c2ccc(NC(=N)c3cccs3)cc12 (as salt: hydrochloride) [Compound 147, (R)-N-(3-(2-(1-Methylpyrrolidin-2-yl)ethyl)-1H-indol-5-yl)thiophene-2-carboximidamide]

SMILES: CN1CCC[C@@H]1Cc1c[nH]c2ccc(NC(=N)c3cccs3)cc12 [Compound 97, (R)-N-(3-((1-Methylpyrrolidin-2-yl)methyl)-1H-indol-5-yl)thiophene-2-carboximidamide]
IC50 (5-HT1B): 0.31 µM
IC50 [2, 7]: 34.5 µM
e/n ([3]; Table I, ratio eNOSh/nNOSh): 41
IC50 [3, 8]: 0.84 µM
development of hindpaw allodynia (hindpaw allodynia; [9]): prevents the development of hindpaw allodynia

SMILES: COC(=O)[C@@H](N)CCCNC(=N)N[N+](=O)[O-] [L-NAME]
patient mortality (cardiogenic shock): 27%

IC50 ([1]; Table 2b, read-out: Human iNOS): 72.8 µM
IC50 ([2]; read-out: Human eNOS, Table 2b): 16 µM
IC50 ([3]; read-out: Human nNOS, Table 2b): 0.32 µM
SMILES: CN1CCCC1CCn1ccc2ccc(NC(=N)c3cccs3)cc21 (stereo not drawn) [32(+)]
tactile hyperthesia [4]: reversal of tactile hyperthesia
thermal hyperalgesia [4]: clear antihyperalgesic effect

IC50 (Rat nNOS): 4.1 µM
IC50 (murine macrophage iNOS; [10]): 67.2 µM
IC50 (bovine eNOS; [11]): 6.2 µM
SMILES: CN1CCCC1CCn1ccc2ccc(NC(=N)c3cccs3)cc21 (centres unmarked) [Compound 32]

SMILES: CN(C)CCc1c[nH]c2ccc(NC(=N)c3cccs3)cc12 [Compound 18]
IC50 ([1]; Table 2b, read-out: Human iNOS): 12 µM
IC50 [1, 6]: 12 µM
IC50 (Rat nNOS): 3.3 µM
IC50 (murine macrophage iNOS): 43.5 µM
IC50 (bovine eNOS): 248 µM
protection of neuronal cells from death upon NMDA challenge [5]: protected neuronal cells from death
IC50 ([2]; read-out: Human eNOS, Table 2b): 26 µM
IC50 [2, 7]: 26 µM
e/n ([3]; Table I, ratio eNOSh/nNOSh): 10
IC50 ([3]; read-out: Human nNOS, Table 2b): 2.6 µM
IC50 [3, 8]: 2.6 µM

SMILES: N=C(Nc1ccc2ccn(CCc3ccccc3)c2c1)c1cccs1 [Compound 27]
IC50 ([1]; Table 2b, read-out: Human iNOS): 320 µM
IC50 (Rat nNOS): 14.6 µM
IC50 (murine macrophage iNOS; [10]): 159 µM
IC50 (bovine eNOS; [11]): > 300 µM
IC50 ([2]; read-out: Human eNOS, Table 2b): > 100 µM
IC50 ([3]; read-out: Human nNOS, Table 2b): 12 µM

melting point: 150 to 152 °C
SMILES: CCN1CCC(c2c[nH]c3ccc(NC(=N)c4cccs4)cc23)CC1 [Compound 61, N-(3-(1-ethylpiperidin-4-yl)-1H-indol-5-yl)thiophene-2-carboximidamide]

IC50 ([1]; Table 2b, read-out: Human iNOS): 72.6 µM
IC50 ([2]; read-out: Human eNOS, Table 2b): 24 µM
IC50 ([3]; read-out: Human nNOS, Table 2b): 0.2 µM
SMILES: CN1CCCC1CCn1ccc2ccc(NC(=N)c3cccs3)cc21 (stereo not drawn) [32(−)]
tactile hyperthesia [4]: reversal of tactile hyperthesia
thermal hyperalgesia [4]: clear antihyperalgesic effect

IC50 (5-HT1B): 0.49 µM
IC50 [2, 7]: 39 µM
e/n ([3]; Table I, ratio eNOSh/nNOSh): 90
IC50 [3, 8]: 0.43 µM
SMILES: CN1CCC(c2c[nH]c3ccc(NC(=N)c4cccs4)cc23)C1 (centres unmarked) [Compound 110, N-(3-(1-methylpyrrolidin-3-yl)-1H-indol-5-yl)thiophene-2-carboximidamide]

IC50 (5-HT1B): 1.1 µM
IC50 [2, 7]: 33.8 µM
IC50 [3, 8]: 1.24 µM
SMILES: CN1CCC(c2c[nH]c3ccc(NC(=N)c4ccco4)cc23)C1 (centres unmarked) [Compound 111, N-(3-(1-methylpyrrolidin-3-yl)-1H-indol-5-yl)furan-2-carboximidamide]

IC50 ([1]; Table 2b, read-out: Human iNOS): 21 µM
IC50 ([2]; read-out: Human eNOS, Table 2b): 3.8 µM
IC50 ([3]; read-out: Human nNOS, Table 2b): 0.49 µM
SMILES: N=C(Nc1ccc2ccn(CCN3CCCCC3)c2c1)c1cccs1 [Compound 37]

IC50 (Rat nNOS): 57.6 µM
IC50 (bovine eNOS; [11]): 643 µM
SMILES: N=C(Nc1ccc2[nH]ccc2c1)c1cccs1 [Compound 5]

SMILES: CCSC(=N)Nc1ccc2[nH]ccc2c1 [Compound 4]
IC50 (Rat nNOS): 29.6 µM
IC50 (murine macrophage iNOS; [10]): 46.9 µM
IC50 (bovine eNOS; [11]): 164 µM

SMILES: CN=C(N)NCCC[C@H](N)C(=O)O.Cl [L-NMMA, L-N^G methylarginine hydrochloride]
response rate (migraine): 67%
survival rate (persistent shock): 72%
development of hindpaw allodynia (hindpaw allodynia; 10 mg/kg i.v 10 minutes prior to IS): prevents the development of hindpaw allodynia

SMILES: CNS(=O)(=O)Cc1ccc2[nH]cc(CCN(C)C)c2c1 [Sumatriptan, reference compound]
development of hindpaw allodynia (hindpaw allodynia; 1 mg/kg s.c. 5 minutes prior to soup, two hours after IS): prevention of the development of hindpaw allodynia
